Results on 14 molecules are retold here after US20260248783A1 (ASCLETIS BIOSCIENCE CO., LTD., priority 2021, published 2026).

One may read the IC50 as the concentration that gives 50% inhibition. Low values mean higher potency, high ones lower potency.

T1 sequence (Q9NZQ7 19-238): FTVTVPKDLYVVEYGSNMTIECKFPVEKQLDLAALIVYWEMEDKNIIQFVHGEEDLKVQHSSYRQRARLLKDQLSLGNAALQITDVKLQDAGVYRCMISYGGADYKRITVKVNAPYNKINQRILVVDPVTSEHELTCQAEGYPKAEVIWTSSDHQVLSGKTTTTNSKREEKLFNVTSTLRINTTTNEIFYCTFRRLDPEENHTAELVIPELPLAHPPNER

This experiment addresses T1, PD-1/PD-L1 (Homo sapiens, UniProt Q9NZQ7).
T1 construct: Recombinant human PD-L1 protein (19-238) with a Histag at the C-terminus; purchased AcroBiosystems PD1-H5229 (PD-L1); PD1-H5257 (PD-1)
The experiment can be described thus: PD-1/PD-L1 Homogeneous Time-Resolved Fluorescence (HTRF) Binding Assay. The following applies: PD-1/PD-L1 HTRF activity; 3 nM PD1, 10 nM PD-L1, 25° C. The essentials:
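Human PD-L1 (19-238, His-tag) 10 nM and PD-1 (25-167, Fc-tag) 3 nM preincubated 40 min with inhibitor in PBS pH 7.4, 0.05% Tween-20, 0.1% BSA, 1% DMSO, 25 °C. Eu-anti-human IgG (1 nM) and anti-His-APC (20 nM) added, 60 min, 665/620 nm ratio; IC50 from percent control activity versus log concentration.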
Background: TR-FRET usually uses a lanthanide donor and a delayed reading to cut background.
In the case of `O=c1[nH]c(C[C@@H]2CCCN2)nn2cc(-c3cccc(-c4cccc(-c5cc6c(=O)[nH]c(C[C@@H]7CCCN7)nn6c5)c4Cl)c3Cl)cc12` [Compound 75, 6′-(2,2′-dichloro-[1,1′-biphenyl]-3,3′-diyl)bis(2-(((S)-pyrrolidin-2-yl)methyl)pyrrolo[2,1-f][1,2,4]triazin-4(3H)-one)], the IC50 is 10 to 100 nM.

As to `Cc1cn2nc(-c3cccc(-c4cccc(-c5cc6c(=O)n(CCN7CCCCC7C(=O)O)c(C)cn6n5)c4Cl)c3Cl)cc2c(=O)n1CCN1CCCCC1C(=O)O` (centres unmarked) [Compound 79, 1,1′-(((2,2′-dichloro-[1,1′-biphenyl]-3,3′-diyl)bis(6-methyl-4-oxopyrazolo[1,5-a]pyrazine-2,5(4H)-diyl))bis(ethane-2,1-diyl))bis(piperidine-2-carboxylic acid)], the IC50 was in the range of 10 to 100 nM.

`Cc1cn2nc(-c3cccc(-c4cccc(-c5cc6c(=O)n(C[C@H]7CCNC7)c(C)cn6n5)c4Cl)c3Cl)cc2c(=O)n1C[C@H]1CCNC1` [Compound 81, 2,2′-(2,2′-dichloro-[1,1′-biphenyl]-3,3′-diyl)bis(6-methyl-5-(((S)-pyrrolidin-3-yl)methyl)pyrazolo[1,5-a]pyrazin-4(5H)-one)] had an IC50 of 10 to 100 nM.

Regarding `Cc1cn2nc(-c3cccc(-c4cccc(-c5cc6c(=O)n(CCNC7(C(=O)O)COC7)c(C)cn6n5)c4Cl)c3Cl)cc2c(=O)n1CCNC1(C(=O)O)COC1` [Compound 82, 3,3′-((((2,2′-dichloro-[1,1′-biphenyl]-3,3′-diyl)bis(6-methyl-4-oxopyrazolo[1,5-a]pyrazine-2,5(4H)-diyl))bis(ethane-2,1-diyl))bis(azanediyl))bis(oxetane-3-carboxylic acid)], the 50% inhibitory concentration (IC50) is at least 100 nM.

`Cc1cn2nc(-c3cccc(-c4cccc(-c5cc6c(=O)n(CCN7CCNCC7)c(C)cn6n5)c4Cl)c3Cl)cc2c(=O)n1CCN1CCNCC1` [Compound 83, 2,2′-(2,2′-dichloro-[1,1′-biphenyl]-3,3′-diyl)bis(6-methyl-5-(2-(piperazin-1-yl)ethyl)pyrazolo[1,5-a]pyrazin-4(5H)-one)] gave an IC50 of at least 100 nM.

Take `Cc1cn2nc(-c3cccc(-c4cccc(-c5cc6c(=O)n(CCN7C[C@@H](O)CC[C@H]7C(=O)O)c(C)cn6n5)c4Cl)c3Cl)cc2c(=O)n1CCN1C[C@@H](O)CC[C@H]1C(=O)O` [Compound 84, (2S,2'S,5S,5'S)-1,1′-(((2,2′-dichloro-[1,1′-biphenyl]-3,3′-diyl)bis(6-methyl-4-oxopyrazolo[1,5-a]pyrazine-2,5(4H)-diyl))bis(ethane-2,1-diyl))bis(5-hydroxypiperidine-2-carboxylic acid)]: the IC50 is at least 100 nM.

`Cc1cn2nc(-c3cccc(-c4cccc(-c5cc6c(=O)n(CCN7CCOCC7C(=O)O)c(C)cn6n5)c4Cl)c3Cl)cc2c(=O)n1CCN1CCOCC1C(=O)O` (centres unmarked) [Compound 86, 4,4′-(((2,2′-dichloro-[1,1′-biphenyl]-3,3′-diyl)bis(6-methyl-4-oxopyrazolo[1,5-a]pyrazine-2,5(4H)-diyl))bis(ethane-2,1-diyl))bis(morpholine-3-carboxylic acid)] had an IC50 of at least 100 nM.

Consider `Cc1cn2nc(-c3cccc(-c4cccc(-c5cc6c(=O)n(CC(C)N[C@@H](CO)C(=O)O)c(C)cn6n5)c4Cl)c3Cl)cc2c(=O)n1CC(C)N[C@@H](CO)C(=O)O` (stereo partly drawn) [Compound 87, (2S,2'S)-2,2′-((((2,2′-dichloro-[1,1′-biphenyl]-3,3′-diyl)bis(6-methyl-4-oxopyrazolo[1,5-a]pyrazine-2,5(4H)-diyl))bis(propane-1,2-diyl))bis(azanediyl))bis(3-hydroxypropanoic acid)], for which the IC50 was at least 100 nM.

With `Cc1cn2nc(-c3cccc(-c4cccc(-c5cc6c(=O)n(CCNC7(C(=O)O)CCC(O)CC7)c(C)cn6n5)c4Cl)c3Cl)cc2c(=O)n1CCNC1(C(=O)O)CCC(O)CC1` (centres unmarked) [Compound 88, 1,1′-((((2,2′-dichloro-[1,1′-biphenyl]-3,3′-diyl)bis(6-methyl-4-oxopyrazolo[1,5-a]pyrazine-2,5(4H)-diyl))bis(ethane-2,1-diyl))bis(azanediyl))bis(4-hydroxycyclohexane-1-carboxylic acid)], the IC50 was in the range of 10 to 100 nM.

`Cc1cn2nc(-c3cccc(-c4cccc(-c5cc6c(=O)n(C[C@@H]7C[C@@H](O)CN7)c(C)cn6n5)c4Cl)c3Cl)cc2c(=O)n1C[C@@H]1C[C@@H](O)CN1` [Compound 92, 2,2′-(2,2′-dichloro-[1,1′-biphenyl]-3,3′-diyl)bis(5-(((2S,4R)-4-hydroxypyrrolidin-2-yl)methyl)-6-methylpyrazolo[1,5-a]pyrazin-4(5H)-one)] registered an IC50 below 10 nM.

In turn, `Cc1cn2nc(-c3cccc(-c4cccc(-c5cc6c(=O)n(CCN7CCCC7CCO)c(C)cn6n5)c4Cl)c3Cl)cc2c(=O)n1CCN1CCCC1CCO` (centres unmarked) [Compound 93, 2,2′-(2,2′-dichloro-[1,1′-biphenyl]-3,3′-diyl)bis(5-(2-(2-(2-hydroxyethyl)pyrrolidin-1-yl)ethyl)-6-methylpyrazolo[1,5-a]pyrazin-4(5H)-one)] gave an IC50 of 10 to 100 nM.

Regarding `Cc1cn2nc(-c3cccc(-c4cccc(-c5cc6c(=O)n(C(C)CN[C@@H](CO)C(=O)O)c(C)cn6n5)c4Cl)c3Cl)cc2c(=O)n1C(C)CN[C@@H](CO)C(=O)O` (stereo partly drawn) [Compound 94, (2S,2'S)-2,2′-((((2,2′-dichloro-[1,1′-biphenyl]-3,3′-diyl)bis(6-methyl-4-oxopyrazolo[1,5-a]pyrazine-2,5(4H)-diyl))bis(propane-2,1-diyl))bis(azanediyl))bis(3-hydroxypropanoic acid)], the concentration for half-maximal inhibition (IC50) lay within 10 to 100 nM.

For the molecule `Cc1cn2nc(-c3cccc(-c4cccc(-c5cc6c(=O)n(CCN[C@]7(C(=O)O)C[C@H](O)C7)c(C)cn6n5)c4Cl)c3Cl)cc2c(=O)n1CCN[C@]1(C(=O)O)C[C@H](O)C1` [Compound 102, (1S,1'S,3S,3'S)-1,1′-((((2,2′-dichloro-[1,1′-biphenyl]-3,3′-diyl)bis(6-methyl-4-oxopyrazolo[1,5-a]pyrazine-2,5(4H)-diyl))bis(ethane-2,1-diyl))bis(azanediyl)) bis(3-hydroxycyclobutane-1-carboxylic acid)], the 50% inhibitory concentration (IC50) is below 10 nM.

“(2S,2'S,4R,4′R)-1,1′-(((2,2′-dichloro-[1,1′-biphenyl]-3,3′-diyl)bis(3-methyl-1-oxopyrrolo[1,2-a]pyrazine-7,2(1H)-diyl))bis(ethane-2,1-diyl))bis(4-hydroxypyrrolidine-2-carboxylic acid) [Compound 59]” had an IC50 of at least 100 nM.
